# Measurements taken from patent US20190127366A1 (LifeSci Pharmaceuticals, Inc., priority 2015, published 2019).
# Biological target: T1, human complement factor D (Homo sapiens, UniProt P00746)
# T1 construct: purchased R&D Systems 1824-SE
# Test: In vitro enzyme inhibition (Z-Lys-SBzl/DTNB absorbance assay)
# Format: biochemical
# Settings: Complement Factor D (R&D Systems), substrate Z-Lys-SBzl, A405 nm; read-out: CFD IC50
# Procedure, shortened: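 Factor D (6.25 ng/μL before addition) preincubated 5 min RT with compound (8 points from 50 μM, 6-fold, 0.5% DMSO final) in 50 mM Tris/HCl pH 7.5, 1 M NaCl, then Z-Lys-SBzl/DTNB added (200 μM each before addition). A405 read kinetically every 30 s for 60 min; IC50 from variable-slope fit, controls with and without enzyme.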
# T1 sequence (P00746 26-253): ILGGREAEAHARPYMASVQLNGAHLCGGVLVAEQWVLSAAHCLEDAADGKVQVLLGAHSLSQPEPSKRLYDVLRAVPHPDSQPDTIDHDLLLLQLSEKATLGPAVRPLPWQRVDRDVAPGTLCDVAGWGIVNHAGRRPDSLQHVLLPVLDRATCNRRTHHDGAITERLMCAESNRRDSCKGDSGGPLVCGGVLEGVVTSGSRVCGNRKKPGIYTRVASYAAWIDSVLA
row,IC50,Compound
1,1000 to 10000 nM,"NC(=O)CC(NC(=O)[C@@H]1[C@H]2CC[C@H](C2)N1C(=O)Cn1nc(C(N)=O)c2ccccc21)c1cccc(Cl)c1F (stereo partly drawn) [Example 144, 1-(2-((1R,3S,4S)-3-((3-amino-1-(3-chloro-2-fluorophenyl)-3-oxopropyl)carbamoyl)-2-azabicyclo[2.2.1]heptan-2-yl)-2-oxoethyl)-1H-indazole-3-carboxamide]"
2,1000 to 10000 nM,"NCCC(NC(=O)[C@@H]1[C@H]2CC[C@H](C2)N1C(=O)Cn1nc(C(N)=O)c2ccccc21)c1cccc(Cl)c1F (stereo partly drawn) [Example 145, 1-(2-((1R,3S,4S)-3-((3-amino-1-(3-chloro-2-fluorophenyl)propyl)carbamoyl)-2-azabicyclo[2.2.1]heptan-2-yl)-2-oxoethyl)-1H-indazole-3-carboxamide]"
3,1000 to 10000 nM,"NC(=O)c1nn(CC(=O)N2[C@@H]3CC[C@@H](C3)[C@H]2C(=O)NC(CCO)c2cccc(Cl)c2F)c2ccccc12 (stereo partly drawn) [Example 146, 1-(2-((1R,3S,4S)-3-((1-(3-chloro-2-fluorophenyl)-3-hydroxypropyl)carbamoyl)-2-azabicyclo[2.2.1]heptan-2-yl)-2-oxoethyl)-1H-indazole-3-carboxamide]"
4,> 10000 nM,"NC(=O)c1nn(CC(=O)N2CCC3CC32C(=O)NCc2cccc(Cl)c2F)c2ccccc12 (stereo not drawn) [Example 147, 1-(2-(1-((3-chloro-2-fluorobenzyl)carbamoyl)-2-azabicyclo[3.1.0]hexan-2-yl)-2-oxoethyl)-1H-indazole-3-carboxamide]"
5,1000 to 10000 nM,"NC(=O)c1nn(CC(=O)N2[C@H]3CC[C@H](CC3)[C@@H]2C(=O)NCc2cccc(Cl)c2F)c2ccccc12 [Example 148, (1S,3R,4S)-2-(2-(3-carbamoyl-1H-indazol-1-yl)acetyl)-N-(3-chloro-2-fluorobenzyl)-2-azabicyclo[2.2.2]octane-3-carboxamide]"
6,> 10000 nM,"NC(=O)c1nn(CC(=O)N2[C@H]3CC[C@H](CC3)[C@@H]2C(=O)Nc2cccc(Cl)c2F)c2ccccc12 [Example 149, (1S,3R,4S)-2-(2-(3-carbamoyl-1H-indazol-1-yl)acetyl)-N-(3-chloro-2-fluorophenyl)-2-azabicyclo[2.2,2]octane-3-carboxamide]"
7,> 10000 nM,"NC(=O)c1nn(CC(=O)N2CC3CC2(C(=O)Nc2cccc(Cl)c2F)C3)c2ccccc12 [Example 150, 2-(2-(3-carbamoyl-1H-indazol-1-yl)acetyl)-N-(3-chloro-2-fluorophenyl)-2-azabicyclo[2.1.1]hexane-1-carboxamide]"
8,1000 to 10000 nM,"NC(=O)c1nn(CC(=O)N2CC3CC2(C(=O)Nc2cccc(Cl)n2)C3)c2ccccc12 [Example 151, 2-(2-(3-carbamoyl-1H-indazol-1-yl)acetyl)-N-(6-chloropyridin-2-yl)-2-azabicyclo[2.1.1]hexane-1-carboxamide]"
9,> 10000 nM,"NC(=O)c1nn(CC(=O)N2[C@H]3CC[C@H]([C@H](O)C3)[C@@H]2C(=O)NCc2cccc(Cl)c2F)c2ccccc12 [Example 153, (1S,3R,4S,5R)-2-(2-(3-carbamoyl-1H-indazol-1-yl)acetyl)-N-(3-chloro-2-fluorobenzyl)-5-hydroxy-2-azabicyclo[2.2.2]octane-3-carboxamide]"
10,1000 to 10000 nM,"NC(=O)c1nn(CC(=O)N2C(C(=O)NCc3cccc(Cl)n3)[C@@H]3C[C@@H](O)[C@H]2[C@H]3O)c2ccccc12 (stereo partly drawn) [Example 154, 1-(2-((1S,4S,6R,7S)-3-(((6-chloropyridin-2-yl)methyl)carbamoyl)-6,7-dihydroxy-2-azabicyclo[2.2.1]heptan-2-yl)-2-oxoethyl)-1H-indazole-3-carboxamide]"
11,1000 to 10000 nM,"NC(=O)c1nn(CC(=O)N2[C@H]3CC[C@H](CC3)[C@@H]2C(=O)Nc2cccc(Cl)n2)c2ccccc12 [Example 155, (1S,3R,4S)-2-(2-(3-carbamoyl-1H-indazol-1-yl)acetyl)-N-(6-chloropyridin-2-yl)-2-azabicyclo[2.2.2]octane-3-carboxamide]"
12,100 to 1000 nM,"NC(=O)c1nn(CC(=O)N2[C@H](C(=O)Nc3cccc(Cl)c3F)C[C@@H]3CCC[C@@H]32)c2ccccc12 [Example 158, 1-(2-((2S,3aS,6aS)-2-((3-chloro-2-fluorophenyl)carbamoyl)hexahydrocyclopenta[b]pyrrol-1(2H)-yl)-2-oxoethyl)-1H-indazole-3-carboxamide]"
13,1000 to 10000 nM,"NC(=O)c1nn(CC(=O)N2[C@H](C(=O)NCc3cccc(Cl)n3)C[C@@H]3CCC[C@@H]32)c2ccccc12 [Example 160, 1-(2-((2S,3aS,6aS)-2-(((6-chloropyridin-2-yl)methyl)carbamoyl)hexahydrocyclopenta[b]pyrrol-1(2H)-yl)-2-oxoethyl)-1H-indazole-3-carboxamide]"
14,1000 to 10000 nM,"NC(=O)c1nn(CC(=O)N2[C@H](C(=O)Nc3cncc(Cl)c3)C[C@@H]3CCC[C@@H]32)c2ccccc12 [Example 161, 1-(2-((2S,3aS,6aS)-2-((5-chloropyridin-3-yl)carbamoyl)hexahydrocyclopenta[b]pyrrol-1(2H)-yl)-2-oxoethyl)-1H-indazole-3-carboxamide]"
15,100 to 1000 nM,"NC(=O)c1nn(CC(=O)N2[C@H](C(=O)Nc3cccc(Cl)n3)C[C@@H]3CCC[C@@H]32)c2ccc(C3CC3)cc12 [Example 162, 1-(2-((2S,3aS,6aS)-2-((6-chloropyridin-2-yl)carbamoyl)hexahydrocyclopenta[b]pyrrol-1(2H)-yl)-2-oxoethyl)-5-cyclopropyl-1H-indazole-3-carboxamide]"
16,> 10000 nM,"NC(=O)c1nn(CC(=O)N2[C@H](C(=O)Nc3ccnc(Cl)c3)C[C@@H]3CCC[C@@H]32)c2ccccc12 [Example 163, 1-(2-((2S,3aS,6aS)-2-((2-chloropyridin-4-yl)carbamoyl)hexahydrocyclopenta[b]pyrrol-1(2H)-yl)-2-oxoethyl)-1H-indazole-3-carboxamide]"
17,100 to 1000 nM,"NC(=O)c1nn(CC(=O)N2[C@H](C(=O)Nc3cccc(Br)n3)C[C@@H]3CCC[C@@H]32)c2ccccc12 [Example 164, 1-(2-((2S,3aS,6aS)-2-((6-bromopyridin-2-yl)carbamoyl)hexahydrocyclopenta[b]pyrrol-1(2H)-yl)-2-oxoethyl)-1H-indazole-3-carboxamide]"
18,100 to 1000 nM,"Cc1ccc2c(c1)c(C(N)=O)nn2CC(=O)N1[C@H](C(=O)NCc2cccc(Cl)c2F)C[C@@H]2CCC[C@@H]21 [Example 165, 1-(2-((2S,3aS,6aS)-2-((3-chloro-2-fluorobenzyl)carbamoyl)hexahydrocyclopenta[b]pyrrol-1(2H)-yl)-2-oxoethyl)-5-methyl-1H-indazole-3-carboxamide]"
19,100 to 1000 nM,"NC(=O)c1nn(CC(=O)N2[C@H](C(=O)NCc3cccc(Cl)c3F)C[C@@H]3CCC[C@@H]32)c2ccc(F)cc12 [Example 166, 1-(2-((2S,3aS,6aS)-2-((3-chloro-2-fluorobenzyl)carbamoyl)hexahydrocyclopenta[b]pyrrol-1(2H)-yl)-2-oxoethyl)-5-fluoro-1H-indazole-3-carboxamide]"
20,100 to 1000 nM,"COc1ccc2c(c1)c(C(N)=O)nn2CC(=O)N1[C@H](C(=O)Nc2cccc(Cl)n2)C[C@@H]2CCC[C@@H]21 [Example 170, 1-(2-((2S,3aS,6aS)-2-((6-chloropyridin-2-yl)carbamoyl)hexahydrocyclopenta[b]pyrrol-1(2H)-yl)-2-oxoethyl)-5-methoxy-1H-indazole-3-carboxamide]"
21,> 10000 nM,"NC(=O)c1nn(CC(=O)N2[C@@H](C(=O)Nc3cccc(Cl)n3)C[C@H]3CCC[C@H]32)c2ccccc12 [Example 171, 1-(2-((2R,3aR,6aR)-2-((6-chloropyridin-2-yl)carbamoyl)hexahydrocyclopenta[b]pyrrol-1(2H)-yl)-2-oxoethyl)-1H-indazole-3-carboxamide]"
22,100 to 1000 nM,"NC(=O)c1nn(CC(=O)N2[C@H](C(=O)Nc3cccc(Cl)n3)C[C@@H]3CCC[C@@H]32)c2cc(F)ccc12 [Example 172, 1-(2-((2S,3aS,6aS)-2-((6-chloropyridin-2-yl)carbamoyl)hexahydrocyclopenta[b]pyrrol-1(2H)-yl)-2-oxoethyl)-6-fluoro-1H-indazole-3-carboxamide 2,2,2-trifluoroacetate]"
23,1000 to 10000 nM,"NC(=O)c1nn(CC(=O)N2[C@H](C(=O)Nc3cccc(Cl)n3)C[C@@H]3CCC[C@@H]32)c2ccc([N+](=O)[O-])cc12 [Example 173, 1-(2-((2S,3aS,6aS)-2-((6-chloropyridin-2-yl)carbamoyl)hexahydrocyclopenta[b]pyrrol-1(2H)-yl)-2-oxoethyl)-5-nitro-1H-indazole-3-carboxamide]"
24,100 to 1000 nM,"N#Cc1ccc2c(c1)c(C(N)=O)nn2CC(=O)N1[C@H](C(=O)Nc2cccc(Cl)n2)C[C@@H]2CCC[C@@H]21 [Example 174, 1-(2-((2S,3aS,6aS)-2-((6-chloropyridin-2-yl)carbamoyl)hexahydrocyclopenta[b]pyrrol-1(2H)-yl)-2-oxoethyl)-5-cyano-1H-indazole-3-carboxamide]"
25,100 to 1000 nM,"COc1ccc2c(c1)c(C(C)=O)nn2CC(=O)N1[C@H](C(=O)Nc2cccc(Cl)n2)C[C@@H]2CCC[C@@H]21 [Example 175, (2S,3aS,6aS)-1-(2-(3-acetyl-5-methoxy-1H-indazol-1-yl)acetyl)-N-(6-chloropyridin-2-yl)octahydrocyclopenta[b]pyrrole-2-carboxamide]"
26,100 to 1000 nM,"CC(=O)c1nn(CC(=O)N2[C@H](C(=O)Nc3cccc(Cl)n3)C[C@@H]3CCC[C@@H]32)c2ccc(C)cc12 [Example 176, (2S,3aS,6aS)-1-(2-(3-acetyl-5-methyl-1H-indazol-1-yl)acetyl)-N-(6-chloropyridin-2-yl)octahydrocyclopenta[b]pyrrole-2-carboxamide]"
27,100 to 1000 nM,"NC(=O)c1nn(CC(=O)N2[C@H](C(=O)Nc3cccc(Cl)n3)C[C@@H]3CCC[C@@H]32)c2cnccc12 [Example 177, 1-(2-((2S,3aS,6aS)-2-((6-chloropyridin-2-yl)carbamoyl)hexahydrocyclopenta[b]pyrrol-1(2H)-yl)-2-oxoethyl)-1H-pyrazolo[3,4-c]pyridine-3-carboxamide]"
